Results: patent US4468511A, “C-20- And C-23-Modified macrolide derivatives” (Eli Lilly and Company, priority 1983, dated 1984)
Values after ≈ are worked out from the molar mass of the structure shown. Where two headings read alike, the source gives them in different places.

Key:
[1] = system: Staphylococcus aureus X1.1; experiment: MIC, standard agar-dilution assay; assay type: cell-based; conditions: Staphylococcus aureus, X1.1
Procedure, shortened: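 Minimum inhibitory concentration against Staphylococcus aureus strain X1.1 was measured with a standard agar-dilution method. The result is reported as the MIC in ug/mL, i.e. the lowest compound concentration in agar that prevents visible growth of this organism.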

[2] = system: Escherichia coli EC14; experiment: MIC, standard agar-dilution assay; assay type: cell-based
Experimental: (§1) Certain of the derivatives are active against some gram-negative bacteria, such as Pasteurella species. The MIC's in Table II were determined by standard agar-dilution assays. The MIC's in Table III were obtained using a conventional broth-dilution microtiter test.

[3] = system: Staphylococcus aureus V41; experiment: MIC, standard agar-dilution assay; assay type: cell-based; conditions: Staphylococcus aureus, V41
Experimental: as §1

[4] = system: Streptococcus pyogenes C203; experiment: MIC, standard agar-dilution assay; assay type: cell-based
Experimental: as §1

[5] = system: Escherichia coli TEM; experiment: MIC, standard agar-dilution assay; assay type: cell-based
Procedure, shortened: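 Minimum inhibitory concentrations against Escherichia coli were measured with a standard agar-dilution method. The result for each derivative is the lowest concentration that inhibits bacterial growth, given in ug/mL.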

[6] = system: Klebsiella pneumoniae X26; experiment: MIC, standard agar-dilution assay; assay type: cell-based
Procedure, shortened: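 MICs for the two Pasteurella strains and the Mycoplasma strain were read from a broth-dilution microtiter test. The Klebsiella strain was tested on agar instead.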

[7] = system: Streptococcus Group D X66; experiment: MIC, standard agar-dilution assay; assay type: cell-based
Experimental: as §1

[8] = system: Klebsiella pneumoniae KAE; experiment: MIC, standard agar-dilution assay; assay type: cell-based
Procedure, shortened: (§2)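 Method depends on organism. Klebsiella pneumoniae was assayed on agar. Pasteurella spp. and Mycoplasma gallisepticum were assayed in broth microtiter dilution.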

[9] = system: Streptococcus pneumoniae Park I; experiment: MIC, standard agar-dilution assay; assay type: cell-based
Experimental: as §1

[10] = system: Streptococcus pyogenes 9960; experiment: MIC, standard agar-dilution assay; assay type: cell-based; conditions: 9960
Experimental: as §1

[11] = system: Staphylococcus epidermidis EPI1; experiment: microbe, parasite or virus in culture; assay type: cell-based; conditions: Staphylococcus epidermidis, EPI1
Experimental: (§3) The MIC's in Table II were determined by standard agar-dilution assays. The MIC's in Table III were obtained using a conventional broth-dilution microtiter test.

[12] = system: Staphylococcus aureus S13E; experiment: microbe, parasite or virus in culture; assay type: cell-based
Experimental: as §3

[13] = system: Staphylococcus aureus X400; experiment: MIC, standard agar-dilution assay; assay type: cell-based
Experimental: as §3

[14] = system: Staphylococcus epidermidis EPI2; experiment: MIC, standard agar-dilution assay; assay type: cell-based
Experimental: as §3

[15] = system: Streptococcus pyogenes C203; experiment: Protection of mice experimentally infected with S. pyogenes C203; assay type: in vivo;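 also: two doses given 1 and 4 hours after infection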
Experimental: Some of the derivatives of this invention have shown in vivo antimicrobial activity against experimentally-induced infections in laboratory animals. When two doses of test compound were administered to mice experimentally infected with S. pyogenes C203, the activity observed was measured as an ED50 value [effective dose in mg/kg to protect 50% of the test animals: see Warren Wick, et al., J. Bacteriol. 81, 233-235 (1961)].

[16] = system: Staphylococcus aureus; experiment: MIC, conventional broth-dilution microtiter test; assay type: cell-based
Experimental: as §1

[17] = system: Pasteurella hemolytica 41D; experiment: MIC, conventional broth-dilution microtiter test; assay type: cell-based; conditions: Pasteurella, 41D
Procedure, shortened: as §2

[18] = system: Mycoplasma gallisepticum 34159; experiment: MIC, conventional broth-dilution microtiter test; assay type: cell-based; conditions: Mycoplasmoides gallisepticum
Procedure, shortened: as §2

[19] = system: Mycoplasma gallisepticum; experiment: MIC, conventional broth-dilution microtiter test; assay type: cell-based; conditions: Mycoplasmoides gallisepticum
Procedure, shortened: as §2

[20] = system: Mycoplasma gallisepticum 41313; experiment: MIC, conventional broth-dilution microtiter test; assay type: cell-based; conditions: Mycoplasmoides gallisepticum
Procedure, shortened: as §2

[21] = system: Pasteurella hemolytica 22C; experiment: MIC, conventional broth-dilution microtiter test; assay type: cell-based
Procedure, shortened: as §2

[22] = system: Pasteurella multocida 60A; experiment: MIC, conventional broth-dilution microtiter test; assay type: cell-based; conditions: Pasteurella multocida, 60A
Procedure, shortened: as §2

[23] = system: Pasteurella multocida 22A; experiment: MIC, conventional broth-dilution microtiter test; assay type: cell-based; conditions: Pasteurella multocida, 22A
Procedure, shortened: as §2

[24] = system: Pasteurella multocida 40G; experiment: MIC, conventional broth-dilution microtiter test; assay type: cell-based; conditions: Pasteurella multocida, 40G
Procedure, shortened: as §2

[25] = system: Pasteurella multocida 17E; experiment: MIC, conventional broth-dilution microtiter test; assay type: cell-based; conditions: Pasteurella multocida, 17E
Procedure, shortened: as §2

[26] = system: Streptococcus sp. 80; experiment: MIC, conventional broth-dilution microtiter test; assay type: cell-based
Experimental: as §1

[27] = system: Mycoplasma hyorhinis; experiment: MIC, conventional broth-dilution microtiter test; assay type: cell-based
Procedure, shortened: (§4)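 Minimum inhibitory concentrations are determined by conventional broth dilution in microtiter wells for Pasteurella and Mycoplasma isolates. For Klebsiella pneumoniae KAE, the standard agar-dilution assay is used.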

[28] = system: Pasteurella hemolytica 23C; experiment: MIC, conventional broth-dilution microtiter test; assay type: cell-based; conditions: Pasteurella, 23C
Procedure, shortened: as §2

[29] = system: Mycoplasma synoviae; experiment: MIC, conventional broth-dilution microtiter test; assay type: cell-based; conditions: Mycoplasmopsis synoviae
Procedure, shortened: as §4

[30] = system: Pasteurella multocida 68C; experiment: MIC, conventional broth-dilution microtiter test; assay type: cell-based; conditions: Pasteurella multocida, 68C
Procedure, shortened: as §2

[31] = system: Pasteurella multocida; experiment: Pasteurella infection in one-day old chicks; assay type: in vivo; conditions: subcutaneous, 30 mg/kg × 2, 1 and 4 hours post-challenge
Experimental: Certain of the formula 1 compounds of this invention have also shown in vivo activity against infections induced by gram-negative bacteria. Table V summarizes the results of tests in which illustrative compounds were evaluated against a Pasteurella infection in one-day old chicks. The compounds were administered parenterally after challenge of the chicks with Pasteurella multocida (0.1 ml of a 10^-4 dilution of a twenty-hour tryptose broth culture of an avian P. multocida given subcutaneously). In these tests, unless indicated otherwise, all non-medicated infected chicks died within 24 hours of Pasteurella challenge. In the tests summarized in Table V, the compounds were administered by subcutaneous injection at a dosage of 30 mg/kg, 1 and 4 hours post-challenge of the chicks with P. multocida.

[32] = system: Haemophilus influenzae C.L.; experiment: MIC, standard agar-dilution assay; assay type: cell-based; conditions: agar-dilution; Haemophilus influenzae C.L., Ampicillin-sensitive strain; read-out: MIC
Experimental: as §3

[33] = system: Haemophilus influenzae 76; experiment: MIC, standard agar-dilution assay; assay type: cell-based; conditions: agar-dilution; Haemophilus influenzae 76, Ampicillin-resistant strain; read-out: MIC
Experimental: as §3

CCC1OC(=O)CC(O)C(C)C(OC2OC(C)C(O)C(N(C)C)C2O)C(CCOC(=O)Cc2ccccc2)CC(C)C(=O)C=CC(C)=CC1COC(=O)Cc1ccccc1 (stereo not shown) [Compound 30, 20,23-Di-O-Phenylacetyl-20-dihydro-OMT] gave an MIC [1] of 0.25 µg/mL (≈ 0.299 µM), an MIC ([2]; Escherichia coli, EC14) of over 128 µg/mL and an MIC [3] of 0.25 µg/mL (≈ 0.299 µM). For the same compound, the MIC ([4]; Streptococcus pyogenes, C203) was 0.25 µg/mL (≈ 0.299 µM), the MIC ([5]; Escherichia coli) was 8 µg/mL (≈ 9.57 µM) and the MIC ([6]; Klebsiella pneumoniae, X26) was 8 µg/mL (≈ 9.57 µM). It also gave an MIC [7] of 0.5 µg/mL (≈ 0.598 µM), an MIC ([8]; Klebsiella pneumoniae) of over 128 µg/mL and an MIC ([9]; Streptococcus pneumoniae) of 0.12 µg/mL (≈ 0.144 µM). It also gave an MIC [10] of 0.5 µg/mL (≈ 0.598 µM), an MIC [11] of 0.25 µg/mL (≈ 0.299 µM) and an MIC [12] of 0.25 µg/mL (≈ 0.299 µM). The MIC ([13]; Staphylococcus aureus, X400) was 0.5 µg/mL (≈ 0.598 µM), the MIC ([14]; Staphylococcus epidermidis, EPI2) was 0.5 µg/mL (≈ 0.598 µM) and the ED50 ([15]; C203, po, read-out: ED50 Oral) was over 100 mg/kg. The ED50 ([15]; C203, sc, read-out: ED50 Subcutaneous) was over 30 mg/kg, the MIC [16] was 1.56 µg/mL (≈ 1.87 µM) and the MIC [17] was 6.25 µg/mL (≈ 7.48 µM). The MIC [18]; 34159 was 12.5 µg/mL (≈ 15 µM), the MIC [19] was 0.78 µg/mL (≈ 0.933 µM) and the MIC [20]; 41313 was 50 µg/mL (≈ 59.8 µM). For the same compound, the MIC ([21]; Pasteurella, 22C) was 6.25 µg/mL (≈ 7.48 µM), the MIC [22] was 6.25 µg/mL (≈ 7.48 µM) and the MIC [23] was 6.25 µg/mL (≈ 7.48 µM). The MIC [24] was 6.25 µg/mL (≈ 7.48 µM), the MIC [25] was 12.5 µg/mL (≈ 15 µM) and the MIC ([26]; Streptococcus, SP.80) was 0.39 µg/mL (≈ 0.466 µM). For the same compound, the MIC ([27]; Mycoplasma) was 50 µg/mL (≈ 59.8 µM), the MIC [28] was 6.25 µg/mL (≈ 7.48 µM) and the MIC [29] was 6.25 µg/mL (≈ 7.48 µM). The MIC [30] was 6.25 µg/mL (≈ 7.48 µM) and the “Number of Deaths/Number Treated” value [31] was 9/10.
CCC1OC(=O)CC(O)C(C)C(OC2OC(C)C(O)C(N(C)C)C2O)C(CCOc2ccccc2)CC(C)C(=O)C=CC(C)=CC1CN1CCCCCCC1 (stereo not shown) [Compound 34, 20-O-Phenyl-20-dihydro-23-Octahydroazocin-1-yl-OMT] was tested, and the MIC [1] was 0.25 µg/mL (≈ 0.324 µM), the MIC ([2]; agar-dilution, Escherichia coli EC14, read-out: MIC) was over 128 µg/mL and the MIC [3] was 0.25 µg/mL (≈ 0.324 µM). The MIC ([4]; agar-dilution, Streptococcus pyogenes C203, read-out: MIC) was 0.12 µg/mL (≈ 0.156 µM), the MIC ([5]; agar-dilution, Escherichia coli TEM, read-out: MIC) was 8 µg/mL (≈ 10.4 µM) and the MIC ([6]; agar-dilution, Klebsiella pneumoniae X26, read-out: MIC) was 8 µg/mL (≈ 10.4 µM). The MIC [7] was 2 µg/mL (≈ 2.59 µM), the MIC ([8]; agar-dilution, Klebsiella pneumoniae KAE, read-out: MIC) was over 128 µg/mL and the MIC ([9]; agar-dilution, Streptococcus pneumoniae Park I, read-out: MIC) was 0.12 µg/mL (≈ 0.156 µM). The MIC [10] was 2 µg/mL (≈ 2.59 µM), the MIC [11] was 0.25 µg/mL (≈ 0.324 µM) and the MIC [12] was 0.25 µg/mL (≈ 0.324 µM). The MIC ([13]; agar-dilution, Staphylococcus aureus X400, Methicillin-resistant strain, read-out: MIC) was 0.5 µg/mL (≈ 0.648 µM), the MIC [32] was 4 µg/mL (≈ 5.19 µM) and the MIC ([14]; agar-dilution, Staphylococcus epidermidis EPI2, read-out: MIC) was 0.12 µg/mL (≈ 0.156 µM). It also gave an MIC [33] of 8 µg/mL (≈ 10.4 µM), an MIC ([16]; broth-dilution microtiter, read-out: MIC) of 0.39 µg/mL (≈ 0.506 µM) and an MIC [17] of 3.12 µg/mL (≈ 4.05 µM). It also gave an MIC ([18]; broth-dilution microtiter, Mycoplasma gallisepticum 34159, Resistant strain, read-out: MIC) of 50 µg/mL (≈ 64.8 µM), an MIC [19] of 0.097 µg/mL (≈ 0.126 µM) and an MIC ([20]; broth-dilution microtiter, Mycoplasma gallisepticum 41313, Resistant strain, read-out: MIC) of 25 µg/mL (≈ 32.4 µM). For the same compound, the MIC ([21]; broth-dilution microtiter, Pasteurella hemolytica 22C, read-out: MIC) was 1.56 µg/mL (≈ 2.02 µM), the MIC [22] was 6.25 µg/mL (≈ 8.11 µM) and the MIC [23] was 6.25 µg/mL (≈ 8.11 µM). For the same compound, the MIC [24] was 3.12 µg/mL (≈ 4.05 µM), the MIC [25] was 3.12 µg/mL (≈ 4.05 µM) and the MIC ([26]; broth-dilution microtiter, Streptococcus sp. 80, read-out: MIC) was 0.78 µg/mL (≈ 1.01 µM). The MIC ([27]; broth-dilution microtiter, Mycoplasma hyorhinis, read-out: MIC) was 50 µg/mL (≈ 64.8 µM), the MIC [28] was 3.12 µg/mL (≈ 4.05 µM) and the MIC ([29]; broth-dilution microtiter, Mycoplasma synoviae, read-out: MIC) was 12.5 µg/mL (≈ 16.2 µM). For the same compound, the MIC [30] was 3.12 µg/mL (≈ 4.05 µM) and the “Number of Deaths/Number Treated” value [31] was 10/10.
